Converted amounts (≈) assume the structure as drawn. Like-named read-outs stand apart in the source and are kept apart here.
How the values were obtained:
[1] = system: M. suipneumoniae NCTC 10110; experiment: MIC against mycoplasma in vitro; assay type: cell-based; settings: Mesomycoplasma hyopneumoniae, NCTC10110, 144 h
[2] = system: M. suipneumoniae ATCC 25095; experiment: MIC against mycoplasma in vitro; assay type: cell-based; settings: Mesomycoplasma hyopneumoniae, ATCC25095, 144 h
[3] = system: Strep. suis (group D) SPS11; experiment: MIC against veterinary bacteria in vitro; settings: Streptococcus suis, 18 h
Protocol: (§1) The activity of the compounds of the Examples against various veterinarily important bacteria, was assayed in vitro using two-fold serial dilutions in Diagnostic Sensitivity Test Agar inoculated with 10^4 organisms.

M. dispar NCTC 10125 = experiment: MIC against mycoplasma in vitro; assay type: cell-based; settings: 144 h
[4] = system: M. suipneumoniae J2206/183^b; experiment: MIC against mycoplasma in vitro; assay type: cell-based; settings: Mesomycoplasma hyopneumoniae, 144 h
M. suipneumoniae HK(2) = experiment: MIC against mycoplasma in vitro; assay type: cell-based; settings: Mesomycoplasma hyopneumoniae, 144 h
Past. multocida PA2 = experiment: MIC against veterinary bacteria in vitro; settings: Pasteurella multocida, PA2, 18 h
Protocol: as §1

[5] = system: Staph. aureus B4 (pen. resistant); experiment: MIC against veterinary bacteria in vitro; settings: Staphylococcus aureus, 18 h
Protocol: as §1

Staph. aureus Oxford [6] = experiment: MIC against veterinary bacteria in vitro; settings: Staphylococcus aureus, 18 h
Protocol: as §1

M. suipneumoniae LABER = experiment: MIC against mycoplasma in vitro; assay type: cell-based; settings: Mesomycoplasma hyopneumoniae, 144 h
M. hyorhinis ATCC 23234 = experiment: MIC against mycoplasma in vitro; assay type: cell-based; settings: Mesomycoplasma hyorhinis, ATCC23234, 144 h
Strep. pneumoniae CN33 = experiment: MIC against human bacteria in vitro; assay type: cell-based; settings: Streptococcus pneumoniae; Strep. pneumoniae CN33; 5% chocolated horse blood agar, 18 hours; read-out: MIC
[7] = system: Haemophilus influenzae Wy21; experiment: MIC against human bacteria in vitro; assay type: cell-based; settings: Haemophilus influenzae Wy21; 5% chocolated horse blood agar, 18 hours; read-out: MIC
Sarcina lutea 8340 = experiment: MIC against human bacteria in vitro; assay type: cell-based; settings: Micrococcus luteus; Sarcina lutea 8340; 5% chocolated horse blood agar, 18 hours; read-out: MIC
S. dublin S7 = experiment: MIC against veterinary bacteria in vitro; settings: Salmonella enterica, S7, 18 h
Protocol: as §1

Bord. bronchiseptica B08 = experiment: MIC against veterinary bacteria in vitro; settings: Bordetella bronchiseptica, B08, 18 h
Protocol: as §1

Staph. aureus W2827 = experiment: MIC against human bacteria in vitro; assay type: cell-based; settings: Staphylococcus aureus; Staph. aureus W2827; 5% chocolated horse blood agar, 18 hours; read-out: MIC
[8] = system: M. suipneumoniae PW/C/210; experiment: MIC against mycoplasma in vitro; assay type: cell-based; settings: Mesomycoplasma hyopneumoniae, 144 h
[9] = system: Pasteurella multocida 1633; experiment: MIC against human bacteria in vitro; assay type: cell-based; settings: Pasteurella multocida 1633; 5% chocolated horse blood agar, 18 hours; read-out: MIC
[10] = system: M. hyosynoviae ATCC 25591; experiment: MIC against mycoplasma in vitro; assay type: cell-based; settings: 144 h
Staph. aureus Russell = experiment: MIC against human bacteria in vitro; assay type: cell-based; settings: Staphylococcus aureus; Staph. aureus Russell; 5% chocolated horse blood agar, 18 hours; read-out: MIC
M. hyorhinis ATCC 25021 = experiment: MIC against mycoplasma in vitro; assay type: cell-based; settings: Mesomycoplasma hyorhinis, ATCC25021, 144 h
E. coli ESS = experiment: MIC against human bacteria in vitro; assay type: cell-based; settings: Escherichia coli; E. coli ESS; 5% chocolated horse blood agar, 18 hours; read-out: MIC
Bacillus subtilis 6633 = experiment: MIC against human bacteria in vitro; assay type: cell-based; settings: Bacillus subtilis 6633; 5% chocolated horse blood agar, 18 hours; read-out: MIC
[11] = system: Corynebacterium pyogenes CY1; experiment: MIC against veterinary bacteria in vitro; settings: CY1, 18 h
Protocol: as §1

Staph. aureus Oxford [12] = experiment: MIC against human bacteria in vitro; assay type: cell-based; settings: Staphylococcus aureus; Staph. aureus Oxford; 5% chocolated horse blood agar, 18 hours; read-out: MIC
M. suipneumoniae UCD 1 = experiment: MIC against mycoplasma in vitro; assay type: cell-based; settings: Mesomycoplasma hyopneumoniae, UCD1, 144 h
Past. haemolytica PA5 = experiment: MIC against veterinary bacteria in vitro; settings: Mannheimia haemolytica, PA5, 18 h
Protocol: as §1

M. suipneumoniae JF 435 = experiment: MIC against mycoplasma in vitro; assay type: cell-based; settings: Mesomycoplasma hyopneumoniae, JF435, 144 h
[13] = system: Corynebacterium xerosis 9755; experiment: MIC against human bacteria in vitro; assay type: cell-based; settings: Corynebacterium xerosis 9755; 5% chocolated horse blood agar, 18 hours; read-out: MIC
[14] = system: Erysipelothrix rhusiopathiae NCTC 8163; experiment: MIC against veterinary bacteria in vitro; settings: Erysipelothrix rhusiopathiae, NCTC8163, 18 h
Protocol: as §1

Past. multocida PA1 = experiment: MIC against veterinary bacteria in vitro; settings: Pasteurella multocida, PA1, 18 h
Protocol: as §1

Strep. agalactiae 2788-B = experiment: MIC against human bacteria in vitro; assay type: cell-based; settings: Streptococcus agalactiae; Strep. agalactiae 2788-B; 5% chocolated horse blood agar, 18 hours; read-out: MIC
M. pneumoniae ATCC 15492 = experiment: MIC against mycoplasma in vitro; assay type: cell-based; settings: Mycoplasmoides pneumoniae, ATCC15492, 144 h
Strep. agalactiae SPA1 = experiment: MIC against veterinary bacteria in vitro; settings: Streptococcus agalactiae, SPA1, 18 h
Protocol: as §1

`COc1ccc(-c2cnc(/C=C(\C)C[C@@H]3OC[C@H](C[C@@H]4O[C@H]4[C@@H](C)[C@H](C)O)[C@@H](O)[C@H]3O)o2)cc1` [Example 4, 5-p-methoxyphenyl-2-(1-normon-2-yl)oxazole A] gave an MIC [1] of 1 µg/mL (≈ 2.11 µM), an MIC [2] of 0.5 µg/mL (≈ 1.06 µM) and an MIC [3] of 20 µg/mL (≈ 42.2 µM). The MIC (M. dispar NCTC 10125) was 0.25 µg/mL (≈ 0.528 µM), the MIC [4] was 1 µg/mL (≈ 2.11 µM) and the MIC (M. suipneumoniae HK(2)) was 1 µg/mL (≈ 2.11 µM). It also gave an MIC (Past. multocida PA2) of 5 µg/mL (≈ 10.6 µM), an MIC [5] of 5 µg/mL (≈ 10.6 µM) and an MIC (Staph. aureus Oxford [6]) of 0.625 µg/mL (≈ 1.32 µM). It also gave an MIC (M. suipneumoniae LABER) of 0.5 µg/mL (≈ 1.06 µM), an MIC (M. hyorhinis ATCC 23234) of 0.5 µg/mL (≈ 1.06 µM) and an MIC (Strep. pneumoniae CN33) of 5 µg/mL (≈ 10.6 µM). The MIC [7] was 2.5 µg/mL (≈ 5.28 µM), the MIC (Sarcina lutea 8340) was > 100 µg/mL and the MIC (S. dublin S7) was > 80 µg/mL. The MIC (Bord. bronchiseptica B08) was > 80 µg/mL, the MIC (Staph. aureus W2827) was 5 µg/mL (≈ 10.6 µM) and the MIC [8] was 0.5 µg/mL (≈ 1.06 µM). The MIC [9] was 25 µg/mL (≈ 52.8 µM), the MIC [10] was 0.5 µg/mL (≈ 1.06 µM) and the MIC (Staph. aureus Russell) was 5 µg/mL (≈ 10.6 µM). For the same molecule, the MIC (M. hyorhinis ATCC 25021) was 0.5 µg/mL (≈ 1.06 µM), the MIC (E. coli ESS) was 2.5 µg/mL (≈ 5.28 µM) and the MIC (Bacillus subtilis 6633) was 5 µg/mL (≈ 10.6 µM). For the same molecule, the MIC [11] was > 80 µg/mL, the MIC (Staph. aureus Oxford [12]) was 2.5 µg/mL (≈ 5.28 µM) and the MIC (M. suipneumoniae UCD 1) was 1 µg/mL (≈ 2.11 µM). The MIC (Past. haemolytica PA5) was 40 µg/mL (≈ 84.5 µM), the MIC (M. suipneumoniae JF 435) was 1 µg/mL (≈ 2.11 µM) and the MIC [13] was > 100 µg/mL. The MIC [14] was > 80 µg/mL, the MIC (Past. multocida PA1) was 5 µg/mL (≈ 10.6 µM) and the MIC (Strep. agalactiae 2788-B) was 5 µg/mL (≈ 10.6 µM).

For `C/C(=C\c1ncc(-c2ccc(Br)cc2)o1)C[C@@H]1OC[C@H](C[C@@H]2O[C@H]2[C@@H](C)[C@H](C)O)[C@@H](O)[C@H]1O` [Example 18, 5-p-Bromophenyl-2-(1-normon-2-yl) oxazole A], the MIC [1] was 1 µg/mL (≈ 1.91 µM), the MIC ([2]; M. suipneumoniae ATCC 25095, 6 days, 37° C., read-out: MIC) was 0.5 µg/mL (≈ 0.957 µM) and the MIC [3] was 10 µg/mL (≈ 19.1 µM). For the same molecule, the MIC (M. dispar NCTC 10125) was 0.25 µg/mL (≈ 0.479 µM), the MIC [4] was 1 µg/mL (≈ 1.91 µM) and the MIC (M. suipneumoniae HK(2)) was 1 µg/mL (≈ 1.91 µM). The MIC (Past. multocida PA2) was 1.25 µg/mL (≈ 2.39 µM), the MIC [5] was 0.156 µg/mL (≈ 0.299 µM) and the MIC (M. pneumoniae ATCC 15492) was 1 µg/mL (≈ 1.91 µM). The MIC (Staph. aureus Oxford [6]) was 0.625 µg/mL (≈ 1.2 µM), the MIC (M. suipneumoniae LABER) was 0.25 µg/mL (≈ 0.479 µM) and the MIC (M. hyorhinis ATCC 23234) was 0.25 µg/mL (≈ 0.479 µM). The MIC (Strep. agalactiae SPA1) was 0.625 µg/mL (≈ 1.2 µM), the MIC (Strep. pneumoniae CN33) was 4 µg/mL (≈ 7.66 µM) and the MIC [7] was 4 µg/mL (≈ 7.66 µM). For the same molecule, the MIC (S. dublin S7) was > 80 µg/mL, the MIC (Bord. bronchiseptica B08) was 40 µg/mL (≈ 76.6 µM) and the MIC (Staph. aureus W2827) was 8 µg/mL (≈ 15.3 µM). For the same molecule, the MIC [8] was 0.25 µg/mL (≈ 0.479 µM), the MIC [9] was 16 µg/mL (≈ 30.6 µM) and the MIC ([10]; M. hyosynoviae ATCC 25591, 6 days, 37° C., read-out: MIC) was 0.5 µg/mL (≈ 0.957 µM). It also gave an MIC (Staph. aureus Russell) of 8 µg/mL (≈ 15.3 µM), an MIC (M. hyorhinis ATCC 25021; M. hyorhinis ATCC 25021, 6 days, 37° C., read-out: MIC) of 0.5 µg/mL (≈ 0.957 µM) and an MIC (E. coli ESS) of 8 µg/mL (≈ 15.3 µM). The MIC (Bacillus subtilis 6633) was 1 µg/mL (≈ 1.91 µM), the MIC [11] was > 80 µg/mL and the MIC (Staph. aureus Oxford [12]) was 2 µg/mL (≈ 3.83 µM). The MIC (M. suipneumoniae UCD 1; M. suipneumoniae UCD 1, 6 days, 37° C., read-out: MIC) was 0.5 µg/mL (≈ 0.957 µM), the MIC (Past. haemolytica PA5) was 40 µg/mL (≈ 76.6 µM) and the MIC (M. suipneumoniae JF 435; M. suipneumoniae JF 435, 6 days, 37° C., read-out: MIC) was 0.5 µg/mL (≈ 0.957 µM). For the same molecule, the MIC [13] was > 128 µg/mL, the MIC [14] was 40 µg/mL (≈ 76.6 µM) and the MIC (Past. multocida PA1) was 10 µg/mL (≈ 19.1 µM). For the same molecule, the MIC (Strep. agalactiae 2788-B) was 8 µg/mL (≈ 15.3 µM).

From US5041567A, “Antibacterial monic acid derivatives” (Beecham Group plc, priority 1982, dated 1991)
